The record followed here is ChEMBL document CHEMBL1201862, “PubChem BioAssay data set” (2004).

In general, IC50 refers to the concentration at which inhibition is half-maximal. The AC50 is the concentration at which the activity in the assay is half-maximal. The EC50 is the concentration giving half of the maximal effect. In general, CC50 refers to the concentration giving 50% cytotoxicity. By Ki is commonly meant a dissociation constant, usually derived from enzyme kinetics or from competition with a known ligand.

Calls of active or inactive are those of the source.

For experiment [1], the target named is T1, Mannose-6-phosphate isomerase (Homo sapiens, UniProt P34949).
T1 sequence (P34949 whole entry): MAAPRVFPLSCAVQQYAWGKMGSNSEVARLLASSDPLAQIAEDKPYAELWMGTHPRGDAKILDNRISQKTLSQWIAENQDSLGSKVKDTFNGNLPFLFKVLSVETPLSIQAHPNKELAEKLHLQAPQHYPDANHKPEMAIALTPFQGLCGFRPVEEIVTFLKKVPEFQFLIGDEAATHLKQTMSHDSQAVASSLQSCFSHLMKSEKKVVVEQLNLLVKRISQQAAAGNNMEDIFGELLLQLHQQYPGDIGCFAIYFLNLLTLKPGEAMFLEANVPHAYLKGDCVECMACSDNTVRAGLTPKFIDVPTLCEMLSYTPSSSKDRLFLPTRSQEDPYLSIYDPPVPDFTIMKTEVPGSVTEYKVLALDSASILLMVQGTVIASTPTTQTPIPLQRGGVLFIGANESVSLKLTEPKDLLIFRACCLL
Nature of the experiment: MPI inhibition at elevated mannose 6-phosphate – biochemical, fluorescence intensity, high mannose 6-phosphate, primary screen (AID 1220).

The target of experiment [2] is Apoptotic protease-activating factor 1 (Homo sapiens, UniProt O14727). The class given is functional.
For a further experiment, the target named is Cytochrome P450 2D6 (Homo sapiens, UniProt P10635).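 Note: CYP2D6 member of a cytochrome P450 panel assay.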
A further experiment addresses Cytochrome P450 2C9 (Homo sapiens, UniProt P11712).
Experiment [3] has as its target T2, Sentrin-specific protease 8 (Homo sapiens, UniProt Q96LD8).
T2 sequence (Q96LD8 whole entry): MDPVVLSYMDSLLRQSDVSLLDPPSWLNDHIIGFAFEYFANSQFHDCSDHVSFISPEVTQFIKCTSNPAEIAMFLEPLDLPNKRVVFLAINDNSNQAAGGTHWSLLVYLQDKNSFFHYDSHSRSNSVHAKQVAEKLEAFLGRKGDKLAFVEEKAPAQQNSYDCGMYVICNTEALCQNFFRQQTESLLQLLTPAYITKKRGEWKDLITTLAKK
Description: inhibition of human SENP8 cleavage activity – biochemical, luminescence, SAR follow-up (AID 504501). The class given is functional.

In experiment [4] the target is T3, Caspase-3 (Homo sapiens, UniProt P42574).
T3 sequence (P42574 whole entry): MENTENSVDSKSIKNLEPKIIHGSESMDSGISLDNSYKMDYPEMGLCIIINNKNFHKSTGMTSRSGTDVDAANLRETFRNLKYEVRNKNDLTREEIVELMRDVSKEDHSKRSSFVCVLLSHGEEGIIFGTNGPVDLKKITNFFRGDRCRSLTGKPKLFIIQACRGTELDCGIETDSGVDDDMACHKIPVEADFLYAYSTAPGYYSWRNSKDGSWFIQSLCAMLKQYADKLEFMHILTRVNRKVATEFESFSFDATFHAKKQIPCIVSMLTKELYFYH
Description: SAR Analysis of small molecule inhibitors of Sentrin-specific proteases (SENPs) using a Caspase-3 Selectivity assay. [Related pubchem assays (depositor defined):AID2540, AID2599, AID434973, AID489001]. In kind it is functional.

Experiment [5] addresses T4, Sentrin-specific protease 6 (Homo sapiens, UniProt Q9GZR1).
T4 sequence (Q9GZR1 whole entry): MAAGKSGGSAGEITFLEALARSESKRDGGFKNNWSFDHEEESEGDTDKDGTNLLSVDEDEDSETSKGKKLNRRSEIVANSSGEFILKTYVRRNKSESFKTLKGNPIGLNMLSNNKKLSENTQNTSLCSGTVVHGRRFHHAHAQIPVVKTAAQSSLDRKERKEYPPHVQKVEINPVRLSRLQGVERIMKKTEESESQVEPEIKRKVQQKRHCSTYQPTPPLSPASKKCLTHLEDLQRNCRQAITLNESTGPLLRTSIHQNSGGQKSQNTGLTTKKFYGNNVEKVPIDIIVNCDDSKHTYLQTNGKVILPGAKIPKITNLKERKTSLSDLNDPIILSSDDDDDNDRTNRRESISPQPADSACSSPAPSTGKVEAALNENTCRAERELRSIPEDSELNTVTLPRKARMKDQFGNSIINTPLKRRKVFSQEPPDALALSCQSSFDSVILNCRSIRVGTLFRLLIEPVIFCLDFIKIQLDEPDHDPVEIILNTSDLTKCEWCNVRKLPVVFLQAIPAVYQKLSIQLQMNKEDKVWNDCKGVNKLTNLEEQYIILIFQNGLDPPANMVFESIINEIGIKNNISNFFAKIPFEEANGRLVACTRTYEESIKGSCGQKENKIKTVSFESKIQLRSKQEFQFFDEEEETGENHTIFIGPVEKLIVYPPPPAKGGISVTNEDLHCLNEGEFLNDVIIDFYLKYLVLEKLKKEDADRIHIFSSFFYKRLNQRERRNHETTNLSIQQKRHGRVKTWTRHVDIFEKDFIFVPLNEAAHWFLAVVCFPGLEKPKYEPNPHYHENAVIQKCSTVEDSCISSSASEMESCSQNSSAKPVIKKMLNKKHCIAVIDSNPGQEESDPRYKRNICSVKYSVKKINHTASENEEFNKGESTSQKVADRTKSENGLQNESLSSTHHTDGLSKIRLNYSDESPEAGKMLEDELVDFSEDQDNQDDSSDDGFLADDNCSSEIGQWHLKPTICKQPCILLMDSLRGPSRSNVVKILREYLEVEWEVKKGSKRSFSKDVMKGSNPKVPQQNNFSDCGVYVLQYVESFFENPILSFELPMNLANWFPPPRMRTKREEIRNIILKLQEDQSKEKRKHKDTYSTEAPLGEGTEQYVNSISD
Nature of the experiment: SAR Analysis of small molecule inhibitors of Sentrin-specific protease 6 (SENP6) using a Luminescent assay. [Related pubchem assays (depositor defined):AID2582, AID2599]. In kind it is functional.

Experiment [6] concerns the target T5, Sentrin-specific protease 7 (Homo sapiens, UniProt Q9BQF6).
T5 sequence (Q9BQF6 whole entry): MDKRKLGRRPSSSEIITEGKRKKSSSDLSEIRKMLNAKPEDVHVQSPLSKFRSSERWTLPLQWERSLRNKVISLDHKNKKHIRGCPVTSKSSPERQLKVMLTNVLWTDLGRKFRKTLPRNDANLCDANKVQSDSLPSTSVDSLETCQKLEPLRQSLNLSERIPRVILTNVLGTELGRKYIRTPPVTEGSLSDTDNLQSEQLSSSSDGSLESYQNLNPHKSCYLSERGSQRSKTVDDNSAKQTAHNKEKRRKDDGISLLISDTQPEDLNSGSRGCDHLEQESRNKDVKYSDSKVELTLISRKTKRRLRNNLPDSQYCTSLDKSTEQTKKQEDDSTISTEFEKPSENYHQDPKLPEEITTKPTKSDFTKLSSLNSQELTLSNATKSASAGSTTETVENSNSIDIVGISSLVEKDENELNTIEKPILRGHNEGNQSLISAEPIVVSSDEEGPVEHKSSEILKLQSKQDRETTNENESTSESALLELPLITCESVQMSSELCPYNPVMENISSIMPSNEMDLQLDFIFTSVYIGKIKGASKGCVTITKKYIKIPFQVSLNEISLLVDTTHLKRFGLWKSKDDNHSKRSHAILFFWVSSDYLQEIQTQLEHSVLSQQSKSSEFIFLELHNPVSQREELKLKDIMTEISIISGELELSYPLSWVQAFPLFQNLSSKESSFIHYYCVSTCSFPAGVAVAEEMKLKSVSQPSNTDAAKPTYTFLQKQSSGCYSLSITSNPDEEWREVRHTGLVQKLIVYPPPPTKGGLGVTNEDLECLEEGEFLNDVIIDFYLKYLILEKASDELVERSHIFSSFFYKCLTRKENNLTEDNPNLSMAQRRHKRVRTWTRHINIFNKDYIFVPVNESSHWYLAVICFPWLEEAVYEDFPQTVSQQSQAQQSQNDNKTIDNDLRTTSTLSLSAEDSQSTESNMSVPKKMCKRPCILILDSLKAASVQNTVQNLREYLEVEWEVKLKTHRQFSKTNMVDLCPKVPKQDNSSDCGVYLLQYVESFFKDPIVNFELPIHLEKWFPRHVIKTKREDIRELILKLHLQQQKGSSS
Nature of the experiment: inhibition of human SENP7 cleavage activity – biochemical, luminescence, SAR follow-up (AID 504497). In kind it is functional.

Experiment [7] addresses T3, Caspase-3. In kind it is functional.
For experiment [8], the target named is T5, Sentrin-specific protease 7. In kind it is functional.
Experiment [9] addresses T4, Sentrin-specific protease 6. In kind it is functional.
Experiment [10] deals with T2, Sentrin-specific protease 8. The class given is functional.
Experiment [11] in a line: Luminescence Cell-Based Dose Confirmation HTS to Identify Activators of 5'UTR Stem-Loop Driven Alpha-Synuclein mRNA Translation in H4 Neuroglioblastoma Cells. [Related pubchem assays: 1829 (Project Summary), 1814 (Primary HTS)]. The class given is functional.
A short description of experiment [12]: Luminescence Cell-Based Dose Response HTS to Identify Activators of Luciferase Translation or Activity in H4 […] Cells. [Related pubchem assays: 1829 (Project Summary), 1814 (Primary HTS)]. In kind it is functional.
A further experiment concerns H4. Nature of the experiment: Luminescence Cell-Based Dose Response HTS to Identify Activators of 5'UTR Stem-Loop Driven Prion Protein mRNA Translation in H4 Neuroglioblastoma Cells. [Related pubchem assays: 1829 (Project Summary), 1814 (Primary HTS)]. In kind it is functional. Particulars: Homo sapiens.
In experiment [13] the target is FAD-linked sulfhydryl oxidase ALR (Homo sapiens, UniProt P55789). Description: ALR-catalysed DTT oxidation blockers – biochemical, H2O2 detection, luminescence, cherry-pick, dose response (AID 493248).
For the next experiment, the system named is Vero. Description: viability of Vero cells under compound – cytotoxicity control for flavivirus capping enzyme inhibitors (AID 588742). The class given is functional. To be noted: Chlorocebus sabaeus.
The target in another experiment is T6, Aurora kinase A (Homo sapiens, UniProt O14965).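 Note: value from the Navigating the Kinome kinase panel profiling, panel entry STK6.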
T6 sequence (O14965 whole entry): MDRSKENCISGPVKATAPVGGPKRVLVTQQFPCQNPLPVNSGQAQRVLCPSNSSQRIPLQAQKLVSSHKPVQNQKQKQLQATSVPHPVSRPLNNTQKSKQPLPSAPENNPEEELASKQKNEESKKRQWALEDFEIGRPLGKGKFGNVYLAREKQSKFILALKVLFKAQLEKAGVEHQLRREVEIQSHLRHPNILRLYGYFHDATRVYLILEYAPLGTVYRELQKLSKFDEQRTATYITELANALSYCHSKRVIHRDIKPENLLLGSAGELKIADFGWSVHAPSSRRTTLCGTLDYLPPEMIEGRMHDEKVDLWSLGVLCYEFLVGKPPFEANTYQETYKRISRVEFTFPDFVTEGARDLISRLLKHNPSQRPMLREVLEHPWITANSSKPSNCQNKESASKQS
In kind it is functional.

Experiment [14] concerns the target Cyclin-dependent kinase 19 (Homo sapiens, UniProt Q9BWU1). Nature of the experiment: Navigating the Kinome. Panel member name: CDC2L6. The class given is functional.
The target of experiment [15] is Vascular endothelial growth factor receptor 2 (Homo sapiens, UniProt P35968). The class given is functional.
In another experiment the target is Aurora kinase B (Homo sapiens, UniProt Q96GD4). In kind it is functional.
Aurora kinase B, sequence (Q96GD4 whole entry): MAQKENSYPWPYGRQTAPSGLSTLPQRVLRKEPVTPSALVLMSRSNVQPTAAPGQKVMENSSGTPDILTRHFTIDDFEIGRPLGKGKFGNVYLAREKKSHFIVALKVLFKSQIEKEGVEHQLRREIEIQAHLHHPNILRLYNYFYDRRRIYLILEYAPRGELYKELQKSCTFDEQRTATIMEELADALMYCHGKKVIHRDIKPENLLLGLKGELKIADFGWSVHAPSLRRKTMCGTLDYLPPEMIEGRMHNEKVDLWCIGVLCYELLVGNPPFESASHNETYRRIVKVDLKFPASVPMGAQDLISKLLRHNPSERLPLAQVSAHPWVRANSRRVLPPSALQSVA

Vascular endothelial growth factor receptor 2, sequence (P35968 whole entry): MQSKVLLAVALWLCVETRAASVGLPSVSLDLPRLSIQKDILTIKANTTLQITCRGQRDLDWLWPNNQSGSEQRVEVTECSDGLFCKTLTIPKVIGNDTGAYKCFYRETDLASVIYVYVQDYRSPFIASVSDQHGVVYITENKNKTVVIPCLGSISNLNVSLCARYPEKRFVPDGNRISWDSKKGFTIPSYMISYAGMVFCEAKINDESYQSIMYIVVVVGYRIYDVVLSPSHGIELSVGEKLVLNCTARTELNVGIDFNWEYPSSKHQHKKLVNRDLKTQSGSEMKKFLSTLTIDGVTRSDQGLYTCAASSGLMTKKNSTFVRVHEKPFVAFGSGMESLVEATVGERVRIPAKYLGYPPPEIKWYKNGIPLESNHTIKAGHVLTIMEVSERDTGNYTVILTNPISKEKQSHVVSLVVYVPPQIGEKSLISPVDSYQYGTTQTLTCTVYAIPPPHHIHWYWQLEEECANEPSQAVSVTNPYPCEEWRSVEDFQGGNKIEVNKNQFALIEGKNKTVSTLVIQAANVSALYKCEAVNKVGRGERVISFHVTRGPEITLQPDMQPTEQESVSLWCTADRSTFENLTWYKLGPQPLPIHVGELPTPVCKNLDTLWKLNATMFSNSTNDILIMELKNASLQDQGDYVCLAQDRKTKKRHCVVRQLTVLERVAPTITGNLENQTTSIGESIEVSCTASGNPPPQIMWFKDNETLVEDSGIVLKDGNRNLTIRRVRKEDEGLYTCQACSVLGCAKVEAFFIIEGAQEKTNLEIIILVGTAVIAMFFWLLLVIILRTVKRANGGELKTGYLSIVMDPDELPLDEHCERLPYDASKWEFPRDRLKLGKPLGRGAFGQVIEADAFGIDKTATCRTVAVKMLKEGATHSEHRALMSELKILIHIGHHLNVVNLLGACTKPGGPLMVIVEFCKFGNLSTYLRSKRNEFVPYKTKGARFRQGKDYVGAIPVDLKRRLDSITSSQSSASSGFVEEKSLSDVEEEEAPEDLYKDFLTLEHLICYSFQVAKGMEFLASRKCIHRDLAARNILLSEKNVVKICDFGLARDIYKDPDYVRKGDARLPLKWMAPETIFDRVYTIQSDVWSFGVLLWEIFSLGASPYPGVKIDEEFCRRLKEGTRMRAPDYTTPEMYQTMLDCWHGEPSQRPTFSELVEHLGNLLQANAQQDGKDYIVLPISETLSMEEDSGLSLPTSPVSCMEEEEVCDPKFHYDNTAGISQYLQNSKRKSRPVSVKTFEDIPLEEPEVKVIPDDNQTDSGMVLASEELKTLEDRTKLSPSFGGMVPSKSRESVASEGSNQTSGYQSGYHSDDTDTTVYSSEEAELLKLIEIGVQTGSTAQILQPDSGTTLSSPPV
Apoptotic protease-activating factor 1, sequence (O14727 whole entry): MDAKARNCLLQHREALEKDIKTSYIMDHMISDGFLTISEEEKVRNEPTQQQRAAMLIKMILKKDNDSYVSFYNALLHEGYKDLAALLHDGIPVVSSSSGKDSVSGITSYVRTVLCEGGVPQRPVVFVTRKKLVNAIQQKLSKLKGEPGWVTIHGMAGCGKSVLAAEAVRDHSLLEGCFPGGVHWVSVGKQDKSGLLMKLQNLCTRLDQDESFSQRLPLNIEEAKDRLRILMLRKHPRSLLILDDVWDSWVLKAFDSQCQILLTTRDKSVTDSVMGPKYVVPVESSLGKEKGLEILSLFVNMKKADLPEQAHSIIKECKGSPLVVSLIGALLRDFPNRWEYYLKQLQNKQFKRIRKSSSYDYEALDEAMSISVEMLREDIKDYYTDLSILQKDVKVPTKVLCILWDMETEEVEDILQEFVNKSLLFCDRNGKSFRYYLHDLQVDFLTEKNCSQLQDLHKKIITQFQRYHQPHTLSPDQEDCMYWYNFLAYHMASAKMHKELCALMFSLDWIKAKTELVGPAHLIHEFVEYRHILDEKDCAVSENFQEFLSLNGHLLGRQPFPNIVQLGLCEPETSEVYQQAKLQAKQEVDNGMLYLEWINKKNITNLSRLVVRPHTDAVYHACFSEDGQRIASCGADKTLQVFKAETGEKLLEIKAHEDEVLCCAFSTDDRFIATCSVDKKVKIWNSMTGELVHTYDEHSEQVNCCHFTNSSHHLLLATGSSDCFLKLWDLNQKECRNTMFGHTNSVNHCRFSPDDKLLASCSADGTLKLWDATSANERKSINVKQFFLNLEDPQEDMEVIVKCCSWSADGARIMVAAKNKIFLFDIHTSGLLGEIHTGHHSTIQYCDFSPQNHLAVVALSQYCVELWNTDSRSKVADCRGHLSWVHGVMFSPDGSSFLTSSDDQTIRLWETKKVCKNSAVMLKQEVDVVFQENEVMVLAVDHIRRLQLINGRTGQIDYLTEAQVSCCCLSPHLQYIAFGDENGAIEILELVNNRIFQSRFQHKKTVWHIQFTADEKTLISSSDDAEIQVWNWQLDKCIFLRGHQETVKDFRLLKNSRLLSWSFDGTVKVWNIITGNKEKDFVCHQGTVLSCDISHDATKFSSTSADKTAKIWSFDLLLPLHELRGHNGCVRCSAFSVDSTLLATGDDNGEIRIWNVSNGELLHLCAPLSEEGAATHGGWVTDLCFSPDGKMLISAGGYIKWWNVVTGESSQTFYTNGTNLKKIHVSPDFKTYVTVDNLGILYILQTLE
Cyclin-dependent kinase 19, sequence (Q9BWU1 whole entry): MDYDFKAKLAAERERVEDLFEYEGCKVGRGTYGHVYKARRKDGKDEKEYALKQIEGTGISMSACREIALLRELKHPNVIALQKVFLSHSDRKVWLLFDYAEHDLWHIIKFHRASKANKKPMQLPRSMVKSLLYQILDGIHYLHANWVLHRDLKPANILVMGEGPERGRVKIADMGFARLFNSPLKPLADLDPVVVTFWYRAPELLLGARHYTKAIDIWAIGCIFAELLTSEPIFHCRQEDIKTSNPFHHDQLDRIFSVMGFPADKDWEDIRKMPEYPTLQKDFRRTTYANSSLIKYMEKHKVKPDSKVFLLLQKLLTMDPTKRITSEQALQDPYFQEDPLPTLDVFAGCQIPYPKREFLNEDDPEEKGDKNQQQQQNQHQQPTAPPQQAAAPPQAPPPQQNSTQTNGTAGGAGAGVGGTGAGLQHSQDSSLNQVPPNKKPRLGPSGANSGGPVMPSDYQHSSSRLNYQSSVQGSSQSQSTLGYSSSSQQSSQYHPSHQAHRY
Cytochrome P450 2D6, sequence (P10635 whole entry): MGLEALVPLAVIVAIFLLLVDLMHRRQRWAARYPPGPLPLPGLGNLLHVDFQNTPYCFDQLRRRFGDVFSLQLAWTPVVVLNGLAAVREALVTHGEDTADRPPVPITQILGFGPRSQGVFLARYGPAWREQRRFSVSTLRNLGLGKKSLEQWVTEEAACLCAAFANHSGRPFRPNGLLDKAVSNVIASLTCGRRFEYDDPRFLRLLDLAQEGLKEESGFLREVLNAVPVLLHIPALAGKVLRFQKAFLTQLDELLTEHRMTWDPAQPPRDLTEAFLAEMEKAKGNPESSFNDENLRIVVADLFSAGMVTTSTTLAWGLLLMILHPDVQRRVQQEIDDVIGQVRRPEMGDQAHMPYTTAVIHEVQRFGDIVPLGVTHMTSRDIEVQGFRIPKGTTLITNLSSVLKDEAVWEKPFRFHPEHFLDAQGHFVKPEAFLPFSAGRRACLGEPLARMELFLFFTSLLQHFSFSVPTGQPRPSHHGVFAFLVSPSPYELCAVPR
Cytochrome P450 2C9, sequence (P11712 whole entry): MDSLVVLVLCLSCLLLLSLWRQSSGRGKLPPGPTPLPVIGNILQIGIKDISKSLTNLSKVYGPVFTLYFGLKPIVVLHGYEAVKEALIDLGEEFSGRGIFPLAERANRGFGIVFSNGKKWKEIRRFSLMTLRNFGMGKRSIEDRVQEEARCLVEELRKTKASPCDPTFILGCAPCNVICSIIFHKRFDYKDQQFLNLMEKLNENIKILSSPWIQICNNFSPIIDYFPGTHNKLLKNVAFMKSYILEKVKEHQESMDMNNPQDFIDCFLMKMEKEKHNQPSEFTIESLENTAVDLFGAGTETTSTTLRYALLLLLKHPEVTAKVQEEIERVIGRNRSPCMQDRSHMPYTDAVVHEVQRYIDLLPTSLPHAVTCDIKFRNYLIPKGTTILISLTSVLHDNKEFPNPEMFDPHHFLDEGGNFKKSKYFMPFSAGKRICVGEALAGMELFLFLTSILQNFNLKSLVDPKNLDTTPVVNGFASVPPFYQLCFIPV
FAD-linked sulfhydryl oxidase ALR, sequence (P55789 whole entry): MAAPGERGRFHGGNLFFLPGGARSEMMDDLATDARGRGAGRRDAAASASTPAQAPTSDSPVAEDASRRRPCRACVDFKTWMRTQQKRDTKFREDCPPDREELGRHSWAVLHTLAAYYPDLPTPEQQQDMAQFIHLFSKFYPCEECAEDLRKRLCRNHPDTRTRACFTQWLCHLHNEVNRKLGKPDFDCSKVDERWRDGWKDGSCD

For the molecule `O=C1OC(Nc2ccc3ncccc3c2)c2ccccc21` (centres undefined), the half-inhibitory concentration (IC50) in experiment [1] was > 50 µM (not active); in experiment [2], 32.9 µM (active).

Take `Cc1ccc(-c2nn3c(C)nnc3c3ccccc23)cc1S(=O)(=O)NCc1ccccc1`: the IC50 in [2] is 9.2 µM (active). The AC50 was 15.8 µM (inconclusive) on Cytochrome P450 2D6 and 1.26 µM (inconclusive) at Cytochrome P450 2C9.

For `O=C(/C=C/c1ccc(OC2CSC2)cc1)c1ccccc1`, the half-maximal inhibitory concentration (IC50) in experiment [3] is 8.36 µM (active); on Caspase-3 [4], 23.3 µM (active); in experiment [5] it was 7.59 µM (active); in [6], 5.23 µM (active).

As for `Cc1ccc(NC(=O)CCc2c(C)nn(-c3ccc(N4CCCCC4)nn3)c2C)cc1F`, the IC50 on Caspase-3 [7] was 21.6 µM (active); in experiment [8], 7.86 µM (active); in experiment [9], 24.4 µM (active); in [10], 29.4 µM (active).

For the molecule `O=C1c2sc3nc4n(c(=O)c3c2CCC1Br)CCCCC4` (centres undefined), the EC50 was 5.38 µM (active) in experiment [11], 8.79 µM (active) in experiment [12] and 7.07 µM (active) with H4. For the same molecule, the AC50 in experiment [13] was 1.7 µM (active). For the same molecule, in the experiment with Vero, the CC50 was 24.2 µM (active).

For the molecule `Nc1ccc(-c2nc3cc([N+](=O)[O-])ccc3[nH]2)cc1`, the IC50 is 17.2 µM (active) at Caspase-3 [7], 8.59 µM (active) in [8], 28.3 µM (active) in experiment [9] and 23.8 µM (active) in [10].

Consider `CN(C)c1cc(NN=Cc2ccco2)nc(N(C)C)n1`, for which the IC50 was 75.6 µM (active) in experiment [3], > 99 µM (inactive) at Caspase-3 [4], 17.5 µM (active) in experiment [5] and 35 µM (active) in experiment [6].

Regarding `Cc1ccc(NC(=O)Nc2ccc(-c3c(C(C)C)sc4ncnc(N)c34)cc2)cc1`, the inhibition constant (Ki) at Aurora kinase A is 0.0794 µM (active); in [14], > 100 µM (inactive).

Take `COc1cc(Nc2ncc(C(F)(F)F)c(N)n2)cc(OC)c1OC`: the results for the Ki (on Aurora kinase A; in [15]; on Aurora kinase B) were 0.2 µM (active), 3.98 µM (active) and 0.0398 µM (active), respectively.

Regarding `NC(=O)c1cccc2[nH]c(-c3ccc(N4CCN(Cc5ccccc5)CC4)nc3)nc12`, the values for the Ki (on Aurora kinase A; in experiment [15]; at Aurora kinase B) were 0.501 µM (active), 2 µM (active) and 0.02 µM (active), respectively.
